In general, LD50 refers to the dose at which mortality reaches 50%. A lower LD50 goes with greater toxicity. A word on the NOAEL: it is the highest dose or exposure tested at which no adverse effect was seen. The term IC50 denotes the point on the concentration scale where inhibition reaches its midpoint. For orientation: Tmax means the time at which the peak concentration occurs.

A short description of data set [1]: Acute oral gavage toxicity (MTD).
Protocol: (§3) 20 male and 20 female Swiss albino mice were randomly divided into four groups (G1-G4). Each group was 5 male and 5 female Swiss albino mice. […] G1 was treated with placebo and served as a control. […] The mid dose group animals (G3-treated with 500 mg/kg b.wt) were administered the dose formulation twice with a gap of approximately 1 hour. Animals from high dose group (G4-treated with 1000 mg/kg b.wt) received the dose formulation four times with a gap of approximately one hour.
Another data set deals with ERBB4 (Homo sapiens, UniProt Q15303). The data set is described as follows: Down regulation of receptors, western blot in A549 cells. It counts as cell-based. Set-up: endogenous in cells; host or cells: A549. The note with it: FIG. 8. The method, then:
(§1) Levels of Erb-1, Erb-2, Erb-3, Erb-4 and VEGFR were determined by western blot analysis.
Background: In western blotting, separated proteins are transferred to a membrane and probed.

A further data set has as its target ERBB2 (Homo sapiens, UniProt P04626). Described as above. In kind it is cell-based. Set-up: endogenous in cells; host or cells: A549. The conditions noted are these: FIG. 8. The method, then:
as §1

A short description of data set [2]: Acute toxicity (LD0, LD50). It counts as in vivo. The conditions noted are these: po, mice, single dose. The method, then:
[…]. The doses 500, 750, 1000 and 2000 mg/Kg were administered orally. Each group included 5 mice. […] The survived animals were autopsied for asserting the absorption of compound through g.i.t. The LD50 was determined according to the method described in Litchfield and Wilcoxon (J. Pharmacol. Exp. Ther. 1949, 96:99-113).

Data set [3] is described as follows: 30 day repeated dose study. The note with it: both sexes, dog, in vivo, po, beagle dogs, orally by capsule, read-out: no observed adverse effect level (NOAEL). The method, then: The methods followed were as per CPMP/SWP/1042/99 (July 2000) and ICH S3A (March (1995)) guidelines. Prior to the 30 day repeated dose study, a dose range finding study was conducted, which included single dose MTD study followed by a 10 day repeated dose study. For the single dose MTD study, two dogs (1 male and 1 female) of beagle breed, obtained from Marshall's Farm, China, were used. The route of dosing was oral, by gelatin capsule. Based on the results of the dose range finding study, doses for the 30 days study were selected.
The 30 day repeated dose study employed 12 male and 12 female dogs (Marshall's Farm, China). The dogs were acclimatized for a minimum period of 2 weeks and randomly divided into four main groups (G1-G4), each group comprising of 3 dogs per sex. […]
(§2) The study also tracked body weight (weekly), food consumption (daily), opthalmological status (start and end), hematological and biochemical analyses (start and end), toxicokinetics analysis of plasma (start and end). At the end of the study, all dogs were euthanized by a humane and accepted procedure, subjected to a gross post-mortem examination, organ weights (absolute and relative) were determined, and histopathological examination was carried out.

Data set [4] relates to A549 luciferase expressing cells. The data set is described as follows: Nude mice implanted with A549 luciferase expressing cells. In kind it is in vivo. The note with it: oral and ip routes, FIGS. 6 & 7.
Another data set concerns VEGFR. Kind of data set: Down regulation of receptors, western blot in A549 cells. In kind it is cell-based, human. The conditions noted are these: FIG. 8. The method, then:
as §1

Data set [5] can be described thus: in vivo. The conditions noted are these: both, Swiss albino, mouse, po.
A further data set concerns A549 human lung tumors. Kind of data set: Subcutaneous lung tumors in nude mice. The conditions noted are these: 100 mg/Kg dose. It counts as in vivo. The text has this: Nude mice were implanted with 2×10^6 A549 cells in the right hind limb flank.
In data set [6] the test system is A549 luciferase expressing cells. Kind of data set: Lung tissue harvested from nude mice after treatment. The note with it: oral/ip routes, various concentrations, FIG. 4. It counts as in vivo.
The subject of another data set is H1299 and A549 cells. The data set is described as follows: Matrigel invasion assay. In kind it is cell-based, human. The note with it: 48 hr treatment, FIG. 2. The method, then:
The in vitro invasiveness of H1299 and A549 cells in the presence of various concentrations of NRC compounds (as determined by MTT assay) was assessed using a modified Boyden chamber assay. Cells were treated with these compounds for 48 hr. 1×10^6 cells were suspended in 600 μl of serum-free medium supplemented with 0.2% BSA and placed in the upper compartment of the transwell chambers (Corning Costar Fisher Scientific cat #07-200-158, Pittsburgh Pa.) coated with matrigel (0.7 mg/ml). The lower compartment of the chamber was filled with 200 μl of serum medium and the cells were allowed to migrate for 24 hr. After incubation, the cells were fixed and stained with Hema-3 and quantified as previously described (Mohanam et al. 1993). The migrated cells were quantified as percent invasion.

The conditions of data set [7]: po, Swiss Albino mice, suspended in 2% gum acacia.
Data set [8] can be described thus: in vivo. The conditions noted are these: both, Swiss albino, mouse, po. The source holds these as a separate data set.
Protocol: as §3
Data set [9] can be described thus: Cardiovascular parameters in telemetered dogs. It counts as in vivo. The note with it: male Beagle dogs. The method, then: The study was conducted in accordance with ICH “S7A Safety Pharmacology Studies for Human Pharmaceuticals, Note for Guidance on Safety Pharmacology Studies for Human Pharmaceuticals, July 2001”. The doses tested were 0, 15, 30 and 60 mg/kg b.wt. given orally by gelatin capsule. Four male Beagle dogs, each implanted with a TL1IM2-D70-PCT transmitter (Data Sciences International, USA), were used for the study. During the study, the dogs were administered 4 oral treatments representing placebo and all test substance treatment groups with a three day (˜72 hour) wash-out period between each administration, using a Latin square cross-over design.
On dosing days, the telemetered dogs were observed once before commencement of data collection, continuously through 2 hours post-dose remotely and ˜8 hours post-dose for changes in behaviour. Cardiovascular parameters (systolic, diastolic and mean blood pressure, pulse pressure and heart rate) were recorded continuously for ˜60 minutes before dosing and up to 24 hours after dosing. Systolic, diastolic and mean blood pressures, pulse pressure and heart rate were obtained from the femoral artery waveform. Electrocardiograms were recorded continuously for ˜60 minutes before dosing and up to 24 hours after dosing. […] Heart rate and QT intervals were determined from the ECG's.

Data set [10] can be described thus: Acute oral gavage toxicity (MTD). The conditions noted are these: G4, 1000 mg/kg body wt., rats.
In data set [11] the test system is Salmonella typhimurium (TA 98, TA 100, TA 102, TA 1535 and TA 1537). Kind of data set: Ames bacterial reverse mutation assay. It counts as cell-based. The conditions noted are these: 0.0125-1.2500 mg/plate, with and without S9. The method, then:
The present study was conducted by the direct plate incorporation method with five tester strains of Salmonella typhimurium (TA 98, TA 100, TA 102, TA 1535 and TA 1537). […] Simultaneously, negative control cultures received DMSO and the respective positive controls received the mutagens 2-Amino anthracene, 2-Nitrofluorene, Sodium azide, 9-Aminoacridine and Mitomycin C (Sigma, St. Louis). In order to study the role of metabolic activation, cultures were incubated both with and without S9 mixture. The induction of Histidine positive colonies was computed and results were statistically treated for comparison.

The nature of data set [12]: Functional observational battery (FOB). In kind it is in vivo, Wistar rats. The note with it: 75, 125 and 250 mg/kg b.wt single oral dose, 60-120 min post treatment. The method, then: The study was conducted in accordance with “[…] Safety Pharmacology Studies for Human Pharmaceuticals, ICH” July 2001, and as per this study protocol. […] Rats that had been fasted for 16 to 18 hours (access to water was not interrupted) were dosed with the compound or water. The rats were administered the compound in an aqueous formulation at three levels, 75, 125 and 250 mg/kg b.wt, as a single oral dose by gavage. The control group received water. The rats were subjected to the FOB 60-120 min. after drug administration.
Animals were subjected to the FOB one at a time except for the multiple activity cage where four animals were placed in four different cages simultaneously. Once complete, the animals were returned to their home cage and the cage placed back on the stand.

Data set [13] in a line: Toxicokinetics in 30 day repeated dose study. It counts as in vivo, beagle dogs. The conditions noted are these: for Tmax: beagle, dog, plasma, po, read-out: median Tmax. The method, then:
The 30 day repeated dose study employed 12 male and 12 female dogs (Marshall's Farm, China). The dogs were acclimatized for a minimum period of 2 weeks and randomly divided into four main groups (G1-G4), each group comprising of 3 dogs per sex. The animals were dosed orally with capsules of NRC-2694A for a period of 30 consecutive days at dose levels of 10 mg/kg b.wt/day (G2-low dose), 20 mg/kg b.wt/day (G3-mid dose) and 40 mg/kg b. wt/day (G4-high dose). […] The control group (G1-0 mg/kg b. wt/day) animals were dosed by oral capsule with placebo.
as §2
The toxicokinetic parameters viz.

The nature of data set [14]: Respiratory function, whole body plethysmograph. It counts as in vivo, Wistar rats. The conditions noted are these: 75, 125 and 250 mg/kg body weight, oral, 3 hours. The method, then: This study evaluated the effect of NRC-2694A monohydrochloride on respiratory function in conscious Wistar rats following administration of a single dose using a whole body plethysmograph. The study was conducted in accordance with “S7A Safety Pharmacology Studies for Human Pharmaceuticals, ICH” issued July 2001. The study used a parallel design with one vehicle and three test item treated groups. […] Male Wistar rats were placed in plethysmography chambers and baseline respiratory parameters were recorded for 30 minutes. Following drug administration respiratory parameters were recorded continuously for 3 hours.

Where a name gives a salt, the structure may show the parent alone. Read-outs that look alike come from different tables or passages of the source.

ERBB2, sequence (P04626 23-1255): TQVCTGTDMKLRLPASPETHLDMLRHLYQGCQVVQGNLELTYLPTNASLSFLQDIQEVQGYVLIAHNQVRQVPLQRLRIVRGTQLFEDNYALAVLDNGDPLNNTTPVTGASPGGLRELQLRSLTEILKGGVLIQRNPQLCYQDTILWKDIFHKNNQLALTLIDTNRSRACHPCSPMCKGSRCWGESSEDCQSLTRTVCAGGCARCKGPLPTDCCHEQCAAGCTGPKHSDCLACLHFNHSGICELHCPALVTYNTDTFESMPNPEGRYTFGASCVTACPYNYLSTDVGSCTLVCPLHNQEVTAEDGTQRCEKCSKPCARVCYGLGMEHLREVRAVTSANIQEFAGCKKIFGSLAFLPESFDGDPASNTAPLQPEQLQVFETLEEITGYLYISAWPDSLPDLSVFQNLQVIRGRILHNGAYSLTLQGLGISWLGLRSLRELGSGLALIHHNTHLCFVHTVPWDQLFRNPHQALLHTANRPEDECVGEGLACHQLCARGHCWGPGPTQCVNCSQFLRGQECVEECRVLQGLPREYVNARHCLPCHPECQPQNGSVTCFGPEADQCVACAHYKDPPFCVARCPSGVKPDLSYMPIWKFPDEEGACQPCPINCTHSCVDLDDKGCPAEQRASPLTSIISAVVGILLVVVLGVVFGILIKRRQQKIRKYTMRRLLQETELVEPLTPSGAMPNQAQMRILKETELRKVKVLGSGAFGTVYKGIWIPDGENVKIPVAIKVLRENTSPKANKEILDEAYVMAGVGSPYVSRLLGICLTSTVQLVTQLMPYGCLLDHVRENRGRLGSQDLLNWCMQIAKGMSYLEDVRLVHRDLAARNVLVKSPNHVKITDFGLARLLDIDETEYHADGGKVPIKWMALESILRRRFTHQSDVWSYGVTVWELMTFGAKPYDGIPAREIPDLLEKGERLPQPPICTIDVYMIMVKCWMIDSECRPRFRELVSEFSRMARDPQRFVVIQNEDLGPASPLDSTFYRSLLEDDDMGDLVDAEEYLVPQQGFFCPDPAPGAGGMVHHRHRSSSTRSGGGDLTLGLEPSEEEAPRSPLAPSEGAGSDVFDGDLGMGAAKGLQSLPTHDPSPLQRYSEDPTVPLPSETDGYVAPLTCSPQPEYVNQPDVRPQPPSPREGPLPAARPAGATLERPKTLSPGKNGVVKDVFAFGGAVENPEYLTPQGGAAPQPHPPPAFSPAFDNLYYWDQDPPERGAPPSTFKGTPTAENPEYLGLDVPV
ERBB4, sequence (Q15303 26-1308): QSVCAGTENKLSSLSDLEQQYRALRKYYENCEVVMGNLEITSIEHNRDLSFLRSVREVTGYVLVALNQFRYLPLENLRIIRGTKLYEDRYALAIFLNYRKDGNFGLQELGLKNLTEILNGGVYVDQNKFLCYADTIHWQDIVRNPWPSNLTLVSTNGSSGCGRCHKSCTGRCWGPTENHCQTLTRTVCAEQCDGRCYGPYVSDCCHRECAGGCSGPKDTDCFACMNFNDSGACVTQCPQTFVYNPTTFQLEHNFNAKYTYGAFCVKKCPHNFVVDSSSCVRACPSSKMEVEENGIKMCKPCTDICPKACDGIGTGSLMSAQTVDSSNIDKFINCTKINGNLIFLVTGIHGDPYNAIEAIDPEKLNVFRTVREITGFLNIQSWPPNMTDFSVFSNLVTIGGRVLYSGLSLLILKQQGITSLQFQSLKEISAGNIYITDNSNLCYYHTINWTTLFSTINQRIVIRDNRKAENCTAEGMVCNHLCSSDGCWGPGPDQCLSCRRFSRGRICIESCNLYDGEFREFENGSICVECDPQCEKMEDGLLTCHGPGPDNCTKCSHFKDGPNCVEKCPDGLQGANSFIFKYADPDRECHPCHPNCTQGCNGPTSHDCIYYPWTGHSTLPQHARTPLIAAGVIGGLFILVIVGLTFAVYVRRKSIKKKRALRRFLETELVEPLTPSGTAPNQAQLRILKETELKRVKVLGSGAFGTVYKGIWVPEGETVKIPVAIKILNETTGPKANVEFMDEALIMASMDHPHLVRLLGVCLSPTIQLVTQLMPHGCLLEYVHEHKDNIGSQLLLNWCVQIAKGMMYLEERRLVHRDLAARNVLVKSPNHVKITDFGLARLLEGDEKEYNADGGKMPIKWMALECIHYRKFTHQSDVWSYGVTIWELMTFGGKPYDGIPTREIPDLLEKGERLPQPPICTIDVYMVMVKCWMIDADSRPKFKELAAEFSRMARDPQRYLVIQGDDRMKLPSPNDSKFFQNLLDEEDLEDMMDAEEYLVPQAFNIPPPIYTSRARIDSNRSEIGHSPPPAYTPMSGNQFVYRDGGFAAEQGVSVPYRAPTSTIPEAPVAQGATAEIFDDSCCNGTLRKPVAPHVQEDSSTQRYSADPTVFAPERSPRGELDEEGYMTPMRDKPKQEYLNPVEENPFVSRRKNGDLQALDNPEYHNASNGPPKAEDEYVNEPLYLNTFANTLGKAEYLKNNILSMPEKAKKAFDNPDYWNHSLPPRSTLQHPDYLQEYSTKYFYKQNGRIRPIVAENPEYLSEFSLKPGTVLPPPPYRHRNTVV
Protocol for A549 and H1299 cells: Solubilization of the cells by the addition of a detergent results in the liberation of the crystals, which are solubilized. The number of surviving cells is directly proportional to the level of the formazan product created. The color can then be quantified using a simple colorimetric assay. This assay was done using 0-1000 ng/ml concentrations of Erlotinib and the test compounds in A549 and H1299 cells.

In [1] (both, Swiss albino, mouse, in vivo, po), `C#Cc1cccc(Nc2ncnc3cc(OCCOC)c(OCCOC)cc23)c1` [Erlotinib HCl, N-(3-Ethylnylphenyl)-6,7-bis(2-methoxyethoxy)-4-quinazolinamine] returned an MTD at 14 days of 500 mg/kg. Further, the “Erb B4 levels” value at ERBB4 was “no such indication was seen”. Moreover, the “Erb B2 levels” value at ERBB2 was “no such indication was seen”. The molecule also showed an LD50 at 14 days in [2] (both sexes, mouse, in vivo) of 805 mg/kg. In addition, the LD0 in data set [2] (no mortality at end of 7 days) worked out at 500 mg/kg. Also, in [3], the no-observed-adverse-effect level (NOAEL) at 30 days came out at 5 mg/kg/day. Moreover, the “tumors at the end of 42 days treatment” value in data set [4] is listed as “residual tumors were still present”. The molecule further had an IC50 with A549 and H1299 cells of 0.836 µg/mL. Also, the VEGFR levels result in the data set with VEGFR is “no such indication was seen”. In “in vivo [5]”, this molecule showed an MTD at 72 h of 500 mg/kg. For the same molecule, the tumor regression entry in the data set with A549 human lung tumors is “tumors were still present”. Besides, in [6], the “residual tumors in harvested lungs” value is “tumors were still present”. In addition, in the data set with H1299 and A549 cells, the invasion entry is reported as “dose dependent decrease in invasion”. Besides, in data set [7], the MTD is 500 mg/kg.
Turning to `C#Cc1cccc(Nc2ncnc3cc(OC)c(OCCCN4CCOCC4)cc23)c1.Cl` [NRC-2694 monohydrochloride, N-(3-ethynylphenyl)-7-methoxy-6-[3-(4-morpholinyl)propoxy]-4-quinazolinamine mono hydrochloride], in [1] (250 mg/kg and 500 mg/kg, oral gavage, mice), the “toxic signs or mortality” value was “did not produce any toxic signs or mortality”. The molecule also registered an MTD at 14 days in the data set “in vivo [8]” of 1000 mg/kg. The “cardiovascular parameters (blood pressure, pulse pressure, heart rate, QT, QTcf)” value in [9] (15, 30 and 60 mg/kg b.wt. oral) was “no significant negative effects on cardiovascular parameters”. Moreover, the “no observed effect level” value in data set [9] (cardiovascular parameters, oral) was 60 mg/kg b.wt. In addition, the NOAEL at 30 days in data set [3] is 10 mg/kg/day. In data set [10], the “chromodacryoorhea (animals affected)” value is 10/10. Also, in data set [10], the “mild to severe lethargy (animals affected)” value is given as 10/10. Besides, the “piloerection (animals affected)” value in [10] is given as 10/10. The “ptosis (animals affected)” value in data set [10] was 4/10. Moreover, in data set [10], the “weakness (animals affected)” value is on record as 1/10. Further, the “mutagenicity (His revertant colonies)” value in data set [11] is reported as “non-mutagenic”. Besides, the functional observational battery entry in data set [12] is listed as “did not show any adverse effects at the tested doses”. For the same molecule, the Tmax in data set [13] (day 1, female, 10 mg/kg) turned out to be 2 h; in data set [13] (day 1, female, 40 mg/kg), 4 h; in data set [13] (day 1, male, 10 mg/kg) it was 2 h; in data set [13] (day 1, male, 20 mg/kg) it was 3 h; in [13] (day 1, male, 40 mg/kg), 2 h; in [13] (day 30, female, 20 mg/kg), 4 h. Also, the Cmax entry in data set [13] (three dose levels, male and female dogs) is recorded as “dose-dependent change in the Cmax”. The “respiratory rate, tidal volume, minute volume, and Penh” value in data set [14] was “did not influence any of the observed parameters”.

The values above are taken from patent US8921362B2, “6,7-dialkoxy quinazoline derivatives and methods of treating drug resistant and other tumors” (Natco Pharma Limited, priority 2008, dated 2014).
